According to article PMC8467136, “Enabling Efficient Folding and High-Resolution Crystallographic Analysis of Bracelet Cyclotides” (Molecules, 2021):
“And” between values parts separate entries of the source, which are not always exact repeats. Equal values may be shown once. Bridge positions count the residues as written; N and C are the ends. Peptide text beside a SMILES is read from it.

Legend:
[1] = test system: POPC/POPE (80:20) model membrane; assay: Membrane binding to POPC/POPE lipid bilayers by surface plasmon resonance (SPR); details: BIAcore T200, L1 chip, POPC/POPE (80:20) bilayer, 10 mM HEPES, 150 mM NaCl; for P/L Max, peptide-to-lipid maximum binding value: pH 7.4, injection 180 s, dissociation 600 s, nonlinear regression; for Kd: pH 7.4, nonlinear regression, read-out: KD, peptide concentration required to achieve half-maximum binding at equilibrium
From the text: Cyclotides are reported to exert their biological activities via membrane binding, particularly by selective binding to lipids containing phosphatidylethanolamine (PE) headgroups. Therefore, to evaluate the functional impact of the single mutation on bracelet cyclotides, the membrane-binding ability of these variants towards PE-containing lipid bilayers was examined using surface plasmon resonance (SPR). The model membrane comprising 80% 1-palmitoyloleoyl-phosphatidylcholine (POPC) and 20% 1-palmitoyloleoyl-phosphatidylethanolamine (POPE) was used. Binding affinity was evaluated by the peptide-to-lipid maximum binding value (P/L max, mol/mol) and the peptide concentration required to achieve half-maximum binding at equilibrium (KD value, μM). […] The negative effect of the [I11G] bracelet cyclotide mutation on lipid binding was expected, as the mutation reduces surface hydrophobicity, a previously reported determinant of membrane binding. The SPR dose-response curves and sensorgrams are shown in Figure S4 in Supplementary Material.
The binding affinity of bracelet cyclotides and their variants toward lipid bilayers was studied using SPR, as described previously. Two synthetic lipids, 1-palmitoyl-2-oleoyl-glycero-3-phosphocholine (POPC) and 1-palmitoyl-2-oleoyl-sn-glycero-3-phosphoethanolamine (POPE), were purchased from Avanti Polar Lipids (USA). Briefly, homogenous, small, unilamellar vesicles composed of POPC/POPE (80:20, mol/mol) were obtained by extruding the vesicle suspension through a 50-nm pore size polycarbonate membrane. L1 sensor chips and BIAcore T200 instrument were used (Cytiva, Marlborough, MA, USA). After the lipid was loaded and formed a bilayer membrane on the L1 chip, peptide solutions were injected over the lipid surface for 180 s and the dissociation was monitored for 600 s. Peptides were tested at concentrations ranging from 4–32 μM. Peptide-to-lipid molar ratio and KD values were calculated by nonlinear regression using GraphPad Prism software (version 8.3.1). Peptide solutions and lipid vesicles were prepared in HEPES buffer (10 mM HEPES, 150 mM NaCl, pH 7.4, filtered) for SPR studies.

HeLa cells = assay: Cytotoxicity against HeLa cells, resazurin assay; type: cell-based; details: 5000 cells/well, 24-h incubation with peptide, then resazurin 18 h, triplicate, mean ± SEM
Protocol: To further confirm the activity of these mutants, their cytotoxicity against HeLa cancer cells was evaluated along with wild-type bracelet cyclotides. […] Of the four [I11G] mutants, the hyen D analogue had the highest activity, possibly because hyen D has one more hydrophobic residue in loop 3 compared to the other three cyclotides, which may contribute to its higher lipid-binding capacity (P/L max = 0.37) and help offset the hydrophobicity loss caused by the [I11G] mutation.
The cytotoxicity of the peptides was evaluated using the resazurin assay, as described previously. HeLa cells were seeded at 5000 cells/well in a 96-well, flat-bottomed plate one day prior to the experiments. Peptide solutions were prepared in water and incubated with HeLa cells at concentrations ranging from 16 to 0.125 μM or 8 to 0.063 μM in triplicate (final concentrations). Water and 1% Triton X-100 (TX) were applied as negative and positive control, respectively. After 24-h incubation, 10 μL of resazurin (0.05%, w/v) was added and incubated with cells for another 18 h. The absorbance was measured at 540 and 620 nm on a microplate reader (Infinite M1000 Pro microplate reader, Tecan, Switzerland). The percentage of cell death was quantified by calculating the absorbance ratio, R (R = absorbance at 620/540), and applying the following equation: % Cell death = (Rsample − RH2O)/(RTX − RH2O) × 100. Data were analyzed with GraphPad Prism software (version 8.3.1) using Specific binding with Hill slope algorithm.

SMILES | P/L Max, peptide-to-lipid maximum binding value [1] | Kd [1] | CC50 on HeLa (half maximum cytotoxic concentration) (HeLa cells)
CC[C@H](C)[C@@H]1NC(=O)[C@@H]2CSSC[C@@H]3NC(=O)[C@H](C(C)C)NC(=O)[C@H](CCCCN)NC(=O)[C@H](CC(=O)O)NC(=O)[C@H]([C@@H](C)O)NC(=O)[C@@H]4CSSC[C@H](NC(=O)[C@H](CO)NC(=O)[C@H](CCC(=O)O)NC(=O)CNC(=O)[C@H](CSSC[C@H](NC(=O)CNC(=O)[C@H]([C@@H](C)CC)NC(=O)[C@H](C(C)C)NC(=O)CNC(=O)[C@H](CO)NC1=O)C(=O)N[C@@H](CO)C(=O)N4)NC(=O)[C@@H]1CCCN1C(=O)[C@H]([C@@H](C)O)NC(=O)CNC(=O)[C@H](CC(N)=O)NC(=O)[C@H](CC(C)C)NC(=O)[C@H](Cc1ccc(O)cc1)NC3=O)C(=O)N[C@@H](C(C)C)C(=O)N[C@@H](Cc1ccc(O)cc1)C(=O)N[C@@H](CC(C)C)C(=O)N1CCC[C@H]1C(=O)N2 [[I11L]kB5] (cyclo(CGESCVYLPCISGVIGCSCTDKVCYLNGTP); disulfide 1-17, 5-19, 10-24) | 0.22 ± 0.00 mol/mol | 4.95 ± 0.12 µM | 4.31 ± 0.48 µM
CC[C@H](C)[C@@H]1NC(=O)[C@H](C)NC(=O)[C@H](CO)NC(=O)[C@H](CO)NC(=O)[C@H]([C@@H](C)CC)NC(=O)[C@@H]2CSSC[C@@H]3NC(=O)[C@H](C(C)C)NC(=O)[C@H](CCCCN)NC(=O)[C@H](CO)NC(=O)[C@H](CCCCN)NC(=O)[C@@H]4CSSC[C@H](NC(=O)[C@H](CO)NC(=O)[C@H](CCC(=O)O)NC(=O)CNC(=O)[C@H](CSSC[C@H](NC(=O)CNC1=O)C(=O)N[C@@H](CO)C(=O)N4)NC(=O)[C@@H]1CCCN1C(=O)[C@H]([C@@H](C)CC)NC(=O)CNC(=O)[C@H](CC(N)=O)NC(=O)[C@H](CCCNC(=N)N)NC(=O)[C@H](Cc1ccc(O)cc1)NC3=O)C(=O)N[C@@H](C(C)C)C(=O)N[C@@H](Cc1c[nH]c3ccccc13)C(=O)N[C@@H]([C@@H](C)CC)C(=O)N1CCC[C@H]1C(=O)N2 [cyO2, cycloviolacin O2, reference compound] (cyclo(AIGCSCKSKVCYRNGIPCGESCVWIPCISS); disulfide 4-18, 6-22, 11-27) | 0.28 ± 0.00 mol/mol | 3.9 ± 0.11 µM | 1.05 ± 0.06 µM
CC[C@H](C)[C@@H]1NC(=O)CNC(=O)[C@H](CC(N)=O)NC(=O)[C@H](CCCNC(=N)N)NC(=O)[C@H](Cc2ccc(O)cc2)NC(=O)[C@@H]2CSSC[C@@H]3NC(=O)[C@@H]4CCCN4C(=O)[C@H]([C@@H](C)CC)NC(=O)[C@H](Cc4c[nH]c5ccccc45)NC(=O)[C@H](C(C)C)NC(=O)[C@@H]4CSSC[C@H](NC(=O)[C@H](CO)NC(=O)[C@H](CSSC[C@H](NC(=O)[C@@H]5CCCN5C1=O)C(=O)NCC(=O)N[C@@H](CCC(=O)O)C(=O)N[C@@H](CO)C(=O)N4)NC(=O)CNC(=O)[C@H](C(C)C)NC(=O)[C@H](C)NC(=O)[C@H](CO)NC(=O)[C@H]([C@@H](C)O)NC(=O)[C@H](CC(C)C)NC3=O)C(=O)N[C@@H](CCCCN)C(=O)N[C@@H](CO)C(=O)N[C@@H](CCCCN)C(=O)N[C@@H](C(C)C)C(=O)N2 [cyO9, cycloviolacin O9, reference compound] (cyclo(AVGCSCKSKVCYRNGIPCGESCVWIPCLTS); disulfide 4-18, 6-22, 11-27) | 0.30 ± 0.01 mol/mol | 4.83 ± 0.17 µM | 2.35 ± 0.13 µM
CC[C@H](C)[C@@H]1NC(=O)[C@H](C)NC(=O)[C@H](C)NC(=O)[C@H]([C@@H](C)O)NC(=O)[C@H](Cc2ccccc2)NC(=O)[C@@H]2CSSC[C@@H]3NC(=O)[C@H](C(C)C)NC(=O)[C@H](CCCCN)NC(=O)[C@H](CO)NC(=O)[C@H](CCCCN)NC(=O)[C@@H]4CSSC[C@H](NC(=O)[C@H](CO)NC(=O)[C@H](CCC(=O)O)NC(=O)CNC(=O)[C@H](CSSC[C@H](NC(=O)CNC1=O)C(=O)N[C@@H](CO)C(=O)N4)NC(=O)[C@@H]1CCCN1C(=O)[C@H](Cc1ccccc1)NC(=O)CNC(=O)[C@H](CC(N)=O)NC(=O)[C@H](CCCCN)NC(=O)[C@H](Cc1ccc(O)cc1)NC3=O)C(=O)N[C@@H](C(C)C)C(=O)N[C@@H](Cc1ccc(O)cc1)C(=O)N[C@@H]([C@@H](C)CC)C(=O)N1CCC[C@H]1C(=O)N2 [hyen D, reference compound] (cyclo(AAIGCSCKSKVCYKNGFPCGESCVYIPCFT); disulfide 5-19, 7-23, 12-28) | 0.37 mol/mol and 0.37 ± 0.01 mol/mol | 4.48 ± 0.17 µM | 0.85 ± 0.03 µM
CC[C@H](C)[C@@H]1NC(=O)[C@@H]2CSSC[C@@H]3NC(=O)[C@H](C(C)C)NC(=O)[C@H](CCCCN)NC(=O)[C@H](CC(=O)O)NC(=O)[C@H]([C@@H](C)O)NC(=O)[C@@H]4CSSC[C@H](NC(=O)[C@H](CO)NC(=O)[C@H](CCC(=O)O)NC(=O)CNC(=O)[C@H](CSSC[C@H](NC(=O)CNC(=O)[C@H]([C@@H](C)CC)NC(=O)[C@H](C(C)C)NC(=O)CNC(=O)[C@H](CO)NC1=O)C(=O)N[C@@H](CO)C(=O)N4)NC(=O)[C@@H]1CCCN1C(=O)[C@H]([C@@H](C)O)NC(=O)CNC(=O)[C@H](CC(N)=O)NC(=O)[C@H](CC(C)C)NC(=O)[C@H](Cc1ccc(O)cc1)NC3=O)C(=O)N[C@@H](C(C)C)C(=O)N[C@@H](Cc1ccc(O)cc1)C(=O)N[C@@H]([C@@H](C)CC)C(=O)N1CCC[C@H]1C(=O)N2 [kB5, kalata B5, reference compound] (cyclo(CGESCVYIPCISGVIGCSCTDKVCYLNGTP); disulfide 1-17, 5-19, 10-24) | 0.22 ± 0.00 mol/mol | 5.02 ± 0.17 µM | 3.11 ± 0.20 µM
